# Earlier results in PubChem BioAssay AID1259409 (Chemical Carcinogenesis Research Information System (CCRIS), 2018).
# Tested on: rodent chemically induced tumor inhibition, incidence and multiplicity
# Experiment: CCRIS tumor inhibitor studies
structure (smiles),measurement,setting,value
CC(C)C[C@H]1C(=O)N2CCC[C@H]2[C@]2(O)O[C@](NC(=O)[C@@H]3C=C4c5cccc6[nH]c(Br)c(c56)C[C@H]4N(C)C3)(C(C)C)C(=O)N12,"tumour outcome (control, treated, inhibition, significance)","Carcinogen: N-METHYL-N-NITROSOUREA, 684-93-5, Dose [Inhibitor]: 0.4 MG/100 G BW 1/D FOR 129 D BEGINNING AT 60 D OF AGE (STUDY DURATION: 223 D), Route [Inhibitor]: SUBCUTANEOUS, Species: RAT, Strain/Sex: SPRAGUE-DAWLEY/FEMALE, Target Tissue: Type of Lesion: MAMMARY GLAND: NOT SPECIFIED, Dose [Carcinogen]: 2.5 MG/100 G BW ONCE AT 50 D AND ONCE AT 57 D OF AGE, Promoter: NONE USED","73%, 37%, 49%, p<0.005"
same,"tumour outcome (control, treated, inhibition, significance)","Carcinogen: N-METHYL-N-NITROSOUREA, 684-93-5, Dose [Inhibitor]: 0.4 MG/100 G BW 1/D FOR 175 D BEGINNING AT 60 D OF AGE (STUDY DURATION: 185 D), Route [Inhibitor]: SUBCUTANEOUS, Species: RAT, Strain/Sex: SPRAGUE-DAWLEY/FEMALE, Target Tissue: Type of Lesion: MAMMARY GLAND: NOT SPECIFIED, Dose [Carcinogen]: 1.25 MG/100 G BW ONCE AT 50 D AND ONCE AT 57 D OF AGE, Promoter: NONE USED","27%, 13%, 52%, not significant"
same,"tumour outcome (control, treated, inhibition, significance)","Carcinogen: N-METHYL-N-NITROSOUREA, 684-93-5, Dose [Inhibitor]: 0.4 MG/100 G BW 1/D PLUS 328 MG RETINYL ACETATE/KG DIET FOR 175 D BEGINNING AT 60 D OF AGE (STUDY DURATION: 185 D), Route [Inhibitor]: SUBCUTANEOUS, Species: RAT, Strain/Sex: SPRAGUE-DAWLEY/FEMALE, Target Tissue: Type of Lesion: MAMMARY GLAND: NOT SPECIFIED, Dose [Carcinogen]: 1.25 MG/100 G BW ONCE AT 50 D AND ONCE AT 57 D OF AGE, Promoter: NONE USED","27%, 0%, 100%, p<0.01"
same,"tumour outcome (control, treated, inhibition, significance)","Carcinogen: N-METHYL-N-NITROSOUREA, 684-93-5, Dose [Inhibitor]: 0.4 MG/100 G BW 1/D PLUS 328 MG RETINYL ACETATE/KG OF DIET, FOR 129 D BEGINNING AT 60 D OF AGE (STUDY DURATION: 223 D), Route [Inhibitor]: SUBCUTANEOUS, Species: RAT, Strain/Sex: SPRAGUE-DAWLEY/FEMALE, Target Tissue: Type of Lesion: MAMMARY GLAND: NOT SPECIFIED, Dose [Carcinogen]: 2.5 MG/100 G BW ONCE AT 50 D AND ONCE AT 57 D OF AGE, Promoter: NONE USED","73%, 7%, 90%, p<0.005"
same,outcome,"Carcinogen: N-METHYL-N-NITROSOUREA, 684-93-5, Dose [Inhibitor]: 400 UG/100 G BW TOGETHER WITH 25 UG/100 G BW TAMOXIFEN 1/D FOR 6 MO BEGINNING 3 D POST CARCINOGEN DOSE, DOSAGE OF BOTH R, Route [Inhibitor]: SUBCUTANEOUS, Species: RAT, Strain/Sex: SPRAGUE-DAWLEY/FEMALE, Target Tissue: Type of Lesion: MAMMARY GLAND: CARCINOMA, Dose [Carcinogen]: 2.5 MG/100 G BW ONCE AT 50 D AND ONCE AT 57 D OF AGE, Promoter: NONE USED","88%, 3%, 97%, p<0.001 (at 4 mo post carcinogen dose); 88%, 28%, 68%, not calcula"
same,outcome,"Carcinogen: N-METHYL-N-NITROSOUREA, 684-93-5, Dose [Inhibitor]: 400 UG/100 G BW TOGETHER WITH 25 UG/100 G BW TAMOXIFEN 1/D FOR 6 MO PLUS 328 MG RETINYL ACETATE/KG DIET FOR 6 MO, DOSAGE, Route [Inhibitor]: SUBCUTANEOUS, Species: RAT, Strain/Sex: SPRAGUE-DAWLEY/FEMALE, Target Tissue: Type of Lesion: MAMMARY GLAND: CARCINOMA, Dose [Carcinogen]: 2.5 MG/100 G BW ONCE AT 50 D AND ONCE AT 57 D OF AGE, Promoter: NONE USED","88%, 0%, 100%, p<0.001 (at 4 mo post carcinogen dose); 88%, 7%, 92%, not calcula"
same,outcome,"Carcinogen: N-ethyl-N'-nitro-N-nitrosoguanidine (ENNG), 4245-77-6, Dose [Inhibitor]: 1 mg/kg bw 5 x a wk up to 14.5 mo of age (half a mo before termination of experiment), Route [Inhibitor]: Subcutaneous, Species: Rat, Strain/Sex: Crj:Donryu/female, Target Tissue: Type of Lesion: Uterus: Adenocarcinoma, Dose [Carcinogen]: 20 mg/kg, Promoter: None","9/25 (36%), 3/23 (13%), p<0.05"
same,"tumour outcome (control, treated, inhibition, significance)","Carcinogen: NONE USED, Dose [Inhibitor]: 0.1 MG IN SALINE 1/D FOR 12 MO BEGINNING AT 2 MO OF AGE (STUDY DURATION: 22 MO), Route [Inhibitor]: SUBCUTANEOUS, Species: MOUSE, Strain/Sex: C3H/FEMALE, Target Tissue: Type of Lesion: MAMMARY GLAND: CARCINOMA, Promoter: NONE USED","24/90 (27%), 1/90 (1%), 96%, p<0.001"
same,"tumour outcome (control, treated, inhibition, significance)","Carcinogen: NONE USED, Dose [Inhibitor]: 0.1 MG IN SALINE 1/D FOR 30 D ON ALTERNATE MO BEGINNING AT 7 MO OF AGE FOR 12 MO (STUDY DURATION: 12 MO), Route [Inhibitor]: SUBCUTANEOUS, Species: MOUSE, Strain/Sex: C3H/FEMALE, Target Tissue: Type of Lesion: MAMMARY GLAND: CARCINOMA, Promoter: NONE USED","36/70 (51%), 9/70 (13%), 74%, p<0.01"
same,"tumour outcome (control, treated, inhibition, significance)","Carcinogen: NONE USED, Dose [Inhibitor]: 0.1 MG/D BEGINNING AT 1 MO OF AGE FOR 16 MO (STUDY DURATION: 16 MO), Route [Inhibitor]: SUBCUTANEOUS, Species: MOUSE, Strain/Sex: C3H/FEMALE, Target Tissue: Type of Lesion: MAMMARY GLAND: TUMOR, Promoter: NONE USED","24/29 (83%), 13/28 (46%), 44%, p<0.01"
same,"tumour outcome (control, treated, inhibition, significance)","Carcinogen: NONE USED, Dose [Inhibitor]: 0.5 MG IN 0.05 ML OLIVE OIL 1/D FOR 7 WK BEGINNING AT 4 WK OF AGE (STUDY DURATION: 26 MO), Route [Inhibitor]: SUBCUTANEOUS, Species: RAT, Strain/Sex: SPRAGUE-DAWLEY/FEMALE, Target Tissue: Type of Lesion: MAMMARY GLAND: TUMOR, Promoter: NONE USED","70%, 32%, 54%, p<0.05"
same,"tumour outcome (control, treated, inhibition, significance)","Carcinogen: NONE USED, Dose [Inhibitor]: 0.5 MG IN 0.05 ML OLIVE OIL 1/D FOR 7 WK BEGINNING AT 11 WK OF AGE (STUDY DURATION: 26 MO), Route [Inhibitor]: SUBCUTANEOUS, Species: RAT, Strain/Sex: SPRAGUE-DAWLEY/FEMALE, Target Tissue: Type of Lesion: MAMMARY GLAND: TUMORS, Promoter: NONE USED","70%, 55%, 21%, p<0.05"
same,"tumour outcome (control, treated, inhibition, significance)","Carcinogen: NONE USED, Dose [Inhibitor]: 8.5 MG/KG 1/D FOR 4 D TO PREGNANT MICE ON D 12 TO D 15 OF PREGNANCY, FEMALE OFFSPRING OBSERVED FOR 10 MO (STUDY DURATION, Route [Inhibitor]: SUBCUTANEOUS, Species: MOUSE, Strain/Sex: SHN/FEMALE, Target Tissue: Type of Lesion: MAMMARY GLAND: NOT SPECIFIED, Promoter: NONE USED","33/38 (87%), 10/13 (77%), 11%, not calculated"
same,"tumour outcome (control, treated, inhibition, significance)","Carcinogen: NONE USED, Dose [Inhibitor]: 40 MG/KG 1/D FOR FIRST 5 D OF POSTNATAL LIFE, OBSERVED FOR 10 MO (STUDY DURATION: 10 MO), Route [Inhibitor]: SUBCUTANEOUS, Species: MOUSE, Strain/Sex: SHN/FEMALE, Target Tissue: Type of Lesion: MAMMARY GLAND: NOT SPECIFIED, Promoter: NONE USED","33/38 (87%), 17/17 (100%), -15%, not significant"
same,"tumour outcome (control, treated, inhibition, significance)","Carcinogen: NONE USED, Dose [Inhibitor]: 100 UG OF 1 MG/ML DISSOLVED IN A MINIMAL AMOUNT OF ETHANOL AND SUSPENDED IN 0.9% NACL 1/D FROM D 7 TO 21 OF PREGNANCY (S, Route [Inhibitor]: SUBCUTANEOUS, Species: MOUSE, Strain/Sex: GR/FEMALE, Target Tissue: Type of Lesion: MAMMARY GLAND: TUMOR, Promoter: NONE USED","39/44 (89%), 24/43 (56%), 37%, p<0.05"
